Laboratory results from ChEMBL document CHEMBL1131221, “2'-C-Methyl analogues of selective adenosine receptor agonists: synthesis and binding studies” (J Med Chem, 1998).

Columns and labels:
Rattus norvegicus [1] = species on record: Rattus norvegicus; assay: (§1) Inhibitory activity against Adenylyl cyclase in rat cortical membranes in the presence of 2''-Me-CPA at concentration 50 nM; type: functional
Rattus norvegicus [2] = species on record: Rattus norvegicus; assay: (§2) Inhibitory activity against Adenylyl cyclase in rat cortical membranes in the presence of 2''-Me-CCPA at concentration 30 nM; type: functional
Rattus norvegicus [3] = species on record: Rattus norvegicus; assay: (§3) Inhibitory activity against Adenylyl cyclase in rat cortical membranes in the presence of 2''-IB-Ado at concentration 30 nM; type: functional
Rattus norvegicus [4] = species on record: Rattus norvegicus; assay: as §3; type: functional; remark: listed apart in the source
Rattus norvegicus [5] = species on record: Rattus norvegicus; assay: as §2; type: functional; remark: listed apart in the source
Rattus norvegicus [6] = species on record: Rattus norvegicus; assay: The compound was tested for the concentration to inhibit 50% of Adenylyl cyclase activity in rat cortical membranes.; type: functional
Rattus norvegicus [7] = species on record: Rattus norvegicus; assay: as §1; type: functional; remark: listed apart in the source
Rattus norvegicus [8] = species on record: Rattus norvegicus; assay: Maximal % inhibition of adenylyl cyclase activity in rat cortical membranes at a concentration of 10 uM.; type: functional
[9] = Inhibitory selectivity at Adenosine A3 receptor compared to Adenosine 1 receptor.
Adenosine receptor A2a = Adenosine receptor A2a (Homo sapiens, UniProt P29274)
Adenosine receptor A2a, sequence (P29274 whole entry): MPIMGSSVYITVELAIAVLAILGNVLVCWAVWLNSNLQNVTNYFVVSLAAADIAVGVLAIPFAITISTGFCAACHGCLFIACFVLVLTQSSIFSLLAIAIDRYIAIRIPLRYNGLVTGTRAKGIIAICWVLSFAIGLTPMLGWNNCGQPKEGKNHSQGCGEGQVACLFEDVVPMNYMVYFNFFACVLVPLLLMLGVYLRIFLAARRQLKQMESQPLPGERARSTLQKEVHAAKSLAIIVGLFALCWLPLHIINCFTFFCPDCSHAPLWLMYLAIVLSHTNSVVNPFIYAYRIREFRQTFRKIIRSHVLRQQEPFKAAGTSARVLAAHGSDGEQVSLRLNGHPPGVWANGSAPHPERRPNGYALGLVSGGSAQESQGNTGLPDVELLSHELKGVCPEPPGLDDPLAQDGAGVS
Description: Inhibitory activity at Adenosine A2A receptor by inhibition of [3H]-CGS- 21680 binding to bovine striatal membranes.

[10] = Inhibitory selectivity at Adenosine A3 receptor compared to Adenosine 2A receptor.
[11] = Inhibitory selectivity at Adenosine 2A receptor compared to Adenosine 1 receptor.
Adenosine receptor A1 = target: T1, Adenosine receptor A1 (Bos taurus, UniProt P28190)
T1 sequence (P28190 whole entry): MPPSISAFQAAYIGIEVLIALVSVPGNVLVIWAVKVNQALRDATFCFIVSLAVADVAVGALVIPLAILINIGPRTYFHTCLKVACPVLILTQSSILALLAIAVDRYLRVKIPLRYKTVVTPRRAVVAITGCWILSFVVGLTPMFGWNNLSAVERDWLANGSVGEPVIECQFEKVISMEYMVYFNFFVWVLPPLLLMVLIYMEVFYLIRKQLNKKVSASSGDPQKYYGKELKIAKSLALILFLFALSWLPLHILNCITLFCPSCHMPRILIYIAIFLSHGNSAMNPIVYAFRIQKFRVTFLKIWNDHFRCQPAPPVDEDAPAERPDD
Description: Inhibitory activity at Adenosine A1 receptor by inhibition of [3H]CHA binding to bovine brain cortical membranes.

Adenosine receptor A3 = target: T2, Adenosine receptor A3 (Rattus norvegicus, UniProt P28647); assay: Inhibitory activity against Adenosine A3 receptor by inhibiting specific [3H](R)-PIA binding to rat testis membranes; parameters: species or system Membrane
T2 sequence (P28647 whole entry): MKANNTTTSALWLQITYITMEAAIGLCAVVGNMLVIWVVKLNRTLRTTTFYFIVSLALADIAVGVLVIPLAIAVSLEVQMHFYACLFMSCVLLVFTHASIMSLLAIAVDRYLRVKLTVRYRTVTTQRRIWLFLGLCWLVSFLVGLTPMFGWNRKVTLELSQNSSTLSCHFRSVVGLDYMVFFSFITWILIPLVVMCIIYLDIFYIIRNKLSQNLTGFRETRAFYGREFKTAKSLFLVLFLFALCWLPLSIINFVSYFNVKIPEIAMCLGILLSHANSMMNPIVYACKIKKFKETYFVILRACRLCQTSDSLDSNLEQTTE

[12] = target: T3, Adenosine receptor A3 (Rattus norvegicus) (UniProt P28647); assay: Inhibitory activity against Adenosine A3 receptor by inhibition of [3H](R)-PIA binding to rat testis membranes; type: cell membranes; conditions: Membrane, concentration not given here
T3 sequence (whole entry): T2 sequence (P28647 whole entry)

SMILES | IC50 (Rattus norvegicus [6]) | Max inhibition (Rattus norvegicus [8]) | Ki (Adenosine receptor A2a) | Ki (Adenosine receptor A1) | Ki (Adenosine receptor A3) | other results
OC[C@H]1O[C@@H](n2cnc3c(NC4CCCCC4)ncnc32)[C@H](O)[C@@H]1O | 1.4 nM | 16.2% | – | – | – | IC50 (Rattus norvegicus [1]): 1.4 nM; IC50 (Rattus norvegicus [2]): 1.6 nM; Max inhibition (Rattus norvegicus [3]): 16%; IC50 (Rattus norvegicus [4]): 1.5 nM; Max inhibition (Rattus norvegicus [5]): 16.1%; Max inhibition (Rattus norvegicus [7]): 16.2%
CNC(=O)[C@H]1OC(n2cnc3c(NCc4cccc(I)c4)ncnc32)[C@](C)(O)[C@@H]1O (stereo partly drawn) | – | – | 1530 nM | 254 nM | 320 nM | Selectivity [9]: 1.2; Selectivity [10]: 0.2; Selectivity [11]: 6
C[C@@H](Cc1ccccc1)Nc1ncnc2c1ncn2[C@@H]1O[C@H](CO)[C@@H](O)[C@H]1O [(S)-PIA] | – | – | – | – | 241 nM | –
CNC(=O)[C@H]1O[C@@H](n2cnc3c(NCc4cccc(I)c4)ncnc32)[C@H](O)[C@@H]1O [IB-MECA] | – | – | – | 33.1 nM | – | –
OC[C@H]1O[C@@H](n2cnc3c(NC4CCCC4)ncnc32)[C@H](O)[C@@H]1O [N6-CYCLOPENTYLADENOSINE] | 11.6 nM | 15.5% | 385 nM | – | – | –
OC[C@H]1O[C@@H](n2cnc3c(NC4CCCC4)nc(Cl)nc32)[C@H](O)[C@@H]1O | – | – | 580 nM | 0.35 nM | – | –
CCNC(=O)[C@H]1O[C@@H](n2cnc3c(N)ncnc32)[C@](C)(O)[C@@H]1O | – | – | 218 nM | 142 nM | 550 nM | Selectivity [9]: 3.8; Selectivity [10]: 2.5; Selectivity [11]: 1.5
C[C@@]1(O)[C@H](O)[C@@H](CO)O[C@H]1n1cnc2c(NC3CCCC3)nc(Cl)nc21 | 13.1 nM | 15.1% | – | 1.8 nM | 5000 nM | –
C[C@@]1(O)[C@@H](CO)O[C@@H](n2cnc3c(N)ncnc32)[C@@H]1O | – | – | – | 49500 nM | – | inhibition [12]: 8%
C[C@@]1(O)[C@H](O)[C@@H](CO)O[C@H]1n1cnc2c(NC3CCCC3)ncnc21 | 2.3 nM | 11% | – | 9.5 nM | 208 nM | –
Nc1nc(Cl)nc2c1ncn2[C@@H]1O[C@H](CO)[C@@H](O)[C@H]1O | – | – | 120 nM | 20.2 nM | 3200 nM | Selectivity [9]: 158; Selectivity [10]: 26.6; Selectivity [11]: 5.9
C[C@H](Cc1ccccc1)Nc1ncnc2c1ncn2[C@@H]1O[C@H](CO)[C@@H](O)[C@H]1O [(R)-PIA] | – | – | – | – | 53 nM | –
C[C@H](Cc1ccccc1)Nc1ncnc2c1ncn2[C@@H]1O[C@H](CO)[C@@H](O)[C@@]1(C)O | 1.6 nM | 13.7% | 7440 nM | 4.7 nM | 1080 nM | –
C[C@]1(O)C(n2cnc3c(N)nc(Cl)nc32)O[C@H](CO)[C@H]1O (stereo partly drawn) | – | – | – | 533 nM | – | inhibition [12]: 10%
C[C@@]1(O)[C@H](O)[C@@H](CO)O[C@H]1n1cnc2c(N)ncnc21 | – | – | – | – | – | inhibition [12]: 0%
C[C@@H](Cc1ccccc1)Nc1ncnc2c1ncn2C1O[C@H](CO)[C@@H](O)[C@@]1(C)O (stereo partly drawn) | – | – | – | 50 nM | 10000 nM | –
OC[C@H]1O[C@@H](n2cnc3c(NCc4cccc(I)c4)ncnc32)[C@H](O)[C@@H]1O | – | – | – | 18.6 nM | – | –
C[C@@]1(O)[C@H](O)[C@@H](CO)O[C@H]1n1cnc2c(NCc3cccc(I)c3)ncnc21 | 1.6 nM | 10.9% | – | 20.1 nM | – | –
